Consider 10 compounds from US8735442B2, “Composition for alleviating ultraviolet radiation-induced damage” (priority 2009, dated 2014).

Structures are written as SMILES. Where two headings read alike, the source gives them in different places.

For test [1], the system named is human neonatal epidermal keratinocyte (Cryo NHEK-Neo). In words: UV-B irradiation-induced cell damage in keratinocytes, D-amino acids and cysteine, Alamar Blue (Example 4). Conditions: UV-B 25 mJ/cm^2; 100 μM before and after irradiation; without the amino acid about 500 to 600. The format is cell-based. The method, then: The cell employed was a commercially available human neonatal epidermal keratinocyte (Cryo NHEK-Neo, Sanko-Junyaku Co., Ltd.). […] Thereafter, it was cultured for 2 days in 2 mL of the ordinary medium 3 containing 100 μM D-alanine, D-serine, D-hydroxyproline, D-aspartic acid, D-cysteine or L-cysteine. As a control, the ordinary medium 3 containing PBS instead of the D-amino acid was added to the ordinary medium 3.
Thereafter, the fluorescent intensity was measured by the method described in Example 1.
Background: The colour change of resazurin is a common sign of viable cells or microbes.

The subject of test [2] is human dermal fibroblast derived from a patient having xeroderma pigmentosum (Group A) (XP30S (SVT)). The test is described as follows: UV-A irradiation-induced cell damage in XP cells, pretreatment, Alamar Blue (Example 5). The format is cell-based. The note with it: UV-A 1 J/cm^2; pretreatment 0.1 μM; non-UV irradiating condition about 690, negative control about 630. How it is done:
A human dermal fibroblast derived from a patient having xeroderma pigmentosum (Group […]), hereinafter referred to as “XP cell”) which was obtained from Japan Health Science Foundation was employed and cultured by the same method described in Example 3. […] The UV dose was measured using UV RADIOMETER […] Corporation).

In test [3] the test system is human neonatal epidermal keratinocyte (Cryo NHEK-Neo). In words: UV-B irradiation-induced cell damage in keratinocytes, Alamar Blue (Example 1). The format is cell-based. The note with it: UV-B 75 mJ/cm^2; 0.1 to 100 μM, pretreatment or posttreatment; non-irradiated about 22,000, irradiated 5,000 to 7,000. The method, then: The cell employed was a commercially available human neonatal epidermal keratinocyte (Cryo NHEK-Neo, Sanko-Junyaku Co., Ltd.).
Thereafter, the culture medium was supplemented with Alamar Blue (trade mark, Biosource International Inc.) at a final concentration of 10%, and its supernatant was examined for the fluorescent intensity 3 hours later with an excitation wavelength of 544 nm and a fluorescent wavelength of 590 nm as described by Ahmed S. A. et al. (J. Immunol. Method. 170, 211-224 (1994)) and in accordance with the manufacture's instruction.

The subject of test [4] is human neonatal dermal fibroblast (Cryo NHDF-Neo). The test is described as follows: UV-A irradiation-induced cell damage in fibroblasts, pretreatment, Alamar Blue (Example 3). Conditions: UV-A 22.5 J/cm^2; for fluorescent intensity: control about 1,100.
For test [5] the test system is unchanged. Conditions: for fluorescent intensity / alleviation of the cell damage: 0.1 μM; for fluorescent intensity: Mean ± SD, N = 4-6; for alleviation of the cell damage: UV-A 12.5 J/cm^2 and 15 J/cm^2. How it is done: The cell employed was a commercially available human neonatal dermal fibroblast (Cryo NHDF-Neo, Sanko-Junyaku Co., Ltd.). This cell was inoculated at 2×10^5 cells/mL to a commercially available culture dish of 35 mm in diameter (BD FALCON 353001, Beckton Dickinson Japan), where it was cultured in a commercially available cell culture medium (D-MEM (1 g/L glucose, Wako Pure Chemical Industries, Ltd.) supplemented with 10% fetal bovine serum (hereinafter referred to as “ordinary medium 2”). This cell was cultured for about 24 hours in a 5% CO2 and saturated water vapor atmosphere at 37° C.
Thereafter, the culture medium for culturing the cell described above was switched to 1 mL of a BSO medium containing a glutathione biosynthesis inhibitor BSO (L-buthionine-(S,R)-sulfoximine, Wako Pure Chemical Industries, Ltd.) at 1×10^−3%, where the culture was conducted for about 24 hours in a 5% CO2 and saturated water vapor atmosphere at 37° C. The BSO medium described above was prepared by a 200-fold dilution of a stock solution containing 0.2% BSO in ethyl alcohol with the ordinary medium 2 described above.
[…] was dissolved in a distilled water at 2×10^−3%, and the resultant solution was subjected to a 200-fold dilution (final concentration: 1×10^−5%) with a phosphate buffer solution PBS containing calcium ion and magnesium ion (PBS+) to obtain a medium (hereinafter referred to as “UV irradiation medium”), which was warmed preliminarily before use.
Before UV-A irradiation, the culture medium was replaced with 1 mL of the UV irradiation medium described above. […] The UV dose was measured using UV RADIOMETER UVR-3036/S (Topcon Corporation).
After UV irradiation, the cell was returned to the ordinary medium 2 described above where it was cultured in a 5% CO2 and saturated water vapor atmosphere at 37° C. for 21 hours. For examining the effect of adding proline after UV irradiation (hereinafter referred to as “posttreatment”), this 21-hour cultured medium was supplemented with 0.01 to 1000 μM L- or D-proline.
Thereafter, the fluorescent intensity was measured by a method described in Example 1.

[6] abbreviates: UV irradiation amount 0 J/cm^2, control 12380 ± 21.
The mark [7] stands for this setting: UV-A 12.5 J/cm^2, control 2503 ± 629.
Setting [8] is: UV-A 15 J/cm^2, control 1018 ± 89.

Turning to `C[C@@H](N)C(=O)O` [D-alanine], the “fluorescent intensity of Alamar Blue” value in test [1] was “about 570”.
Still for that read-out and setting: with `N[C@H](CC(=O)O)C(=O)O` [D-aspartic acid] the entry was “about 600”.
Consider `N[C@H](CS)C(=O)O` [D-cysteine], for which, in test [1], the “fluorescent intensity of Alamar Blue” value is “about 700”. In test [2], the fluorescent intensity result is given as “about 638”.
With `N[C@H](CCC(=O)O)C(=O)O` [D-glutamic acid], in test [3], the “cell damage alleviating effect (fluorescent intensity of Alamar Blue)” value is listed as “the cell damage was alleviated”. Besides, the fluorescent intensity result in test [2] is “about 675”; in test [4] (pretreatment 1 μM), “about 1,700”.
As to `O=C(O)[C@H]1C[C@H](O)CN1` [D-hydroxyproline], in test [1], the “fluorescent intensity of Alamar Blue” value is recorded as “about 550”.
With `O=C(O)[C@H]1CCCN1` [D-proline], the fluorescent intensity in test [5] (setting [6]) was 12270 ± 68 ^; in test [5] (setting [7]) it was 4615 ± 1218 *^1; in test [5] (setting [8]), 2365 ± 648 *^2; in test [2], “about 664”; in test [4] (pretreatment 0.1 μM), “about 1,750”. Further, the “alleviation of the cell damage” value in test [5] was “the cell damage was alleviated”. Also, the “cell damage alleviating effect (fluorescent intensity of Alamar Blue)” value in test [5] (UV-A 15 J/cm^2 and 22.5 J/cm^2, posttreatment, non-irradiated about 12,000, irradiated about 5,000 and about 3,000) is “the cell damage was alleviated”.
For the compound `N[C@H](CO)C(=O)O` [D-serine], in test [1], the “fluorescent intensity of Alamar Blue” value is “about 490”.
In the case of `N[C@@H](CS)C(=O)O` [L-cysteine], the “fluorescent intensity of Alamar Blue” value in test [1] is reported as “about 700”. Moreover, the fluorescent intensity result in test [2] is “about 688”.
For the compound `N[C@@H](CCC(=O)O)C(=O)O` [L-glutamic acid], in test [3], the “cell damage alleviating effect (fluorescent intensity of Alamar Blue)” value is “No cell damage alleviating effect was observed”. Moreover, the fluorescent intensity entry in test [2] is given as “about 658”. In test [4] (pretreatment 1 μM), the “cell damage alleviating effect” value is reported as “no cell damage alleviating effect was observed” and the fluorescent intensity result is “about 1,100”.
As to `O=C(O)[C@@H]1CCCN1` [L-proline, reference compound], the fluorescent intensity in test [5] (setting [6]) is 12211 ± 77; in test [5] (setting [7]), 2877 ± 834; in test [5] (setting [8]), 1552 ± 320; in test [2], “about 583”. Moreover, the “alleviation of the cell damage” value in test [5] is reported as “Almost no alleviation of the cell damage”. In addition, the “alleviating effect on ultraviolet irradiation-induced damage” value in test [5] (summary statement referring to the Examples) was “no alleviating effect on ultraviolet irradiation-induced damage”.
